Patent US6753424B1, “Conjugates of DNA interacting groups with steroid hormones for use as nucleic acid transfection agents” (priority 1998, dated 2004)

Assays:
3Y1 cells = experiment: Transfection enhancement, CMV-LacZ reporter, CaPO4 transfection of 3Y1 cells; type: cell-based, rat; details: 5 μg reporter, 3Y1
Experimental: Conditions: 3Y1 cells are transfected with an expression vector that is constitutively expressing the reporter gene LacZ (CMV-LacZ). Transfection conditions are identical throughout the various samples (total 10-12 μq DNA for 4 cm dishes). In some samples the DNA used for the transfection cocktail is pre-incubated with various conjugates at the given concentrations. The concentrations are calculated to give from 10−8 to 10−6 M after dispersing the CaPO4 precipitate in the recipient dish (5 ml volume). Transfection is performed O/N and after rinsing of the precipitate the cells are further incubated for 24 hours. LacZ levels are determined from cell extracts with a chemiluminescence LacZ enzyme assay (Galactolight plus. Tropix). The relative luminescence from each extract is given in RLU/mg*1000.
Cell culture. Cells are cultivated in DMEM supplemented with serum and antibiotica according to standard conditions (typically 10% FCS and Pen/Strep as antibiotica). At the day of transfection, cells are trypsinized and seeded at around 25-30% confluency. Cells are allowed to adhere to dish for 4-6 hours prior to transfection.
DNA pre-incubation (example for conditions that give5×10 exp (−6) Molar final concentration of the CL-C4-EtBr conjugate):
5 microgram of CMV-LacZ DNA (in 10 microliter TE) are mixed with 10 nmoles of hormone derivative (10 microliters stock solution) and incubated for 10 min at room temperature (final volume: 20 ul). The DNA/cortisol-C4-ethidum mix is then supplemented with 7 micrograms sheared calf thymus carrier DNA (in 14 microliters TE) and bidistilled water to give a final volume of 125 microliters.
Transfection by CaPO4: to each transfection sample (125 microliter volume DNA+water). 125 microliters of Ca ++ mix are added, and the mix is incubated for 5-10 min at room temperature. Each sample is then supplemented with 250 microliter of Pi-mix (with simultaneous mixing by up-down pipetting) and is further incubated 10 minutes at room temperature after which the cocktail is poured on top of the medium (5 ml) of each cell culture dish (4 cm diameter). The optimal time of incubation after Pi-mix addition is pre-determined by prior evaluation (size of the precipitate) of parallel samples. The precipitate is allowed to deposit onto the cells for 15 hours (incubation of 37 degrees, 5% CO2). The cells are then rinsed twice with Tris-buffered Saline, supplemented with fresh medium and further incubated under standard conditions. To analyze LacZ reporter gene function, the cells are either fixed or harvested 24 hours after precipitate removal.
Variation of parameters: samples in which the C1-C4-EtBr conjugates (or control compounds) are used at different concentrations, are similarly treated, except that the concentration of the stock solution in ethanol is correspondingly varied.

[1] = Stability of C-21 ester versus C-21 urethane derivatives (TLC analysis); type: in vitro ADME; details: pH 5, pH 9, proteinase K (pH 7.8, 50 μg/ml), dispase (2.4 U/ml), cellular extracts, DMEM/10% FCS
Experimental: b) water buffered to pH 9;
c) water buffered to pH 5;
e) proteinase K (pH 7.8; 50 μg/ml);
After 15 hours of incubation each sample is separately extracted with 400 μl Ethyl acetate, evaporated under N2-flow, redissolved in 20 μl Ethyl acetate and analysed by TLC analysis: stationary phase: Alugram SIL G-25 UV254 (Macherey Nagel AG); mobile phase: Ethyl acetate-MeOH-Acetone (3-1-3).

GR-GFP chimera [2] = experiment: Nuclear Transfer Induction assay (NTI), monourethane ligands, HeLa cells; type: cell-based; details: 1 hr
Experimental: Conditions: HeLa cells are transiently transfected by CaPO4 with an expression vector encoding a GR-GFP chimera (5 μg in transfection cocktail, 4 cm diameter dishes, DMEM with 3% FCS). After 24 hour expression, ligand is added for 1 hr and cells are fixed with formaldehyde (5 min 4° C.) and inspected by fluorescence microscopy. Fluorescent cells are counted and divided into different classes according to ‘cytoplasmic’ (C) versus ‘nuclear’ (N) localisation of fluorescence.
First column: “Conditions”: Name of compounds added (marked at top: ‘//ligand’), and their concentration (in parentheses) and assay number (01 through 21).
Values are given as percentage of cells displaying the corresponding localisatidn, within each tested condition the sum is 100%.

GR-GFP chimera [3] = experiment: Nuclear Transfer Induction assay (NTI), diurethane ligands, CV-1 cells; type: cell-based; details: 4 hr
Experimental: Conditions: CV-1 cells are transiently transfected with DOTAP (Boehringer-Mannheim) with an expression vector encoding a GR-GFP chimera (see 8.1). After 36 hours expression, ligand is added for 4 hr and cells are fixed and counted as given in 8.1.

HUH-7 cells = experiment: Transfection enhancement, CMV-LacZ reporter, HUH-7 cells; type: cell-based, human; parameters: key to net: net = (RLU:protein)×1000 − 600 (mock transfection level)
Experimental: Conditions: HUH-7 cells are human hepatoma cells that contain substantial amounts of glucocorticoid receptor. The cells are transfected with an expression vector that is constitutively expressing the reporter gene LacZ (CMV-LacZ). Transfection conditions and analysis of LacZ reporter are the same as described in Example 7 legend. Transfection is performed O/N and after rinsing of the precipitate the cells are further incubated for 24 hours. LacZ levels are determined from cell extracts with a chemiluminescence LacZ enzyme assay (Galactolight plus, Tropix). The relative luminescence from each extract is given. Each value represents an individual extract. “Induction”: relative reporter gene activity (values divided by value of assay in lane 9, true negative control for DNA liganding). rel/RLU=(RLU:protein)×1000; net=rel/RLU−600 (600=rel/RLU value approximately corresponding to rel/RLU value of mock transfection).

[4] = test system: CV-1 cells reconstituted with exogenous GR; experiment: Transfection enhancement, CMV-LacZ reporter, CV-1 cells reconstituted with exogenous GR; type: cell-based, monkey
Experimental: Conditions: CV-1 cells are first infected with an adenovirus system allowing expression of GR in >90% of the cells (S. B. Verca, unpublished). After 24 hours the cells are; transfected with an expression vector that is constitutively expressing the reporter gene LacZ (CMV-LacZ). Transfection conditions and analysis of LacZ reporter are the same as described in Example 7 legend. Transfection is performed O/N and after rinsing of the precipitate the cells are further incubated for 24 hours. LacZ levels are determined from cell extracts with a chemiluminescence LacZ enzyme assay (Galactolight plus, Tropix). The relative luminescence from each extract is given. Each value represents an individual extract. “Induction”: relative reporter gene activity (values divided by value of assay in lane 9, true negative control for liganding), rel/RLU=(RLU:protein)×1000, net=rel/RLU−600 (600=rel/RLU value approximately corresponding to rel/RLU value of mock transfection).

COC(=O)CCNC(=O)OCC(=O)[C@@]1(O)CCC2C3CCC4=CC(=O)CCC4(C)C3C(O)CC21C (stereo partly shown) [CL-C4]
light units (relative luminescence, LacZ) (3Y1 cells; ligand 10^-6M): 3750 RLU/mg*1000 | light units (relative luminescence, LacZ) (3Y1 cells; ligand 10^-7M): 1625 RLU/mg*1000 | light units (relative luminescence, LacZ) (3Y1 cells; ligand 10^-8M): 2500 RLU/mg*1000

Cc1oc2c(C)c3oc(=O)cc(C)c3cc2c1CNC(=O)CCCCCCCCCCNC(=O)OCC(=O)[C@@]1(O)CCC2C3CCC4=CC(=O)CCC4(C)C3C(O)CC21C (stereo partly shown) [CL-C12-Pso]
stability of urethane bond between steroid moiety, spacer and DNA binder [1]: stable | C < N, percentage of cells (GR-GFP chimera [2]; ligand 1.10-6M): 53% | C << N, percentage of cells (GR-GFP chimera [2]; ligand 1.10-6M): 22% | C = N, percentage of cells (GR-GFP chimera [2]; ligand 1.10-6M): 25% | C > N, percentage of cells (GR-GFP chimera [2]; ligand 1.10-6M): 0% | C >> N, percentage of cells (GR-GFP chimera [2]; ligand 1.10-6M): 0% | C < N, percentage of cells (GR-GFP chimera [2]; ligand 1.10-7M): 3% | C << N, percentage of cells (GR-GFP chimera [2]; ligand 1.10-7M): 0% | C = N, percentage of cells (GR-GFP chimera [2]; ligand 1.10-7M): 52% | C > N, percentage of cells (GR-GFP chimera [2]; ligand 1.10-7M): 40% | C >> N, percentage of cells (GR-GFP chimera [2]; ligand 1.10-7M): 5%

C[C@@H]1C[C@H]2[C@@H]3CCC4=CC(=O)C=C[C@]4(C)[C@@]3(F)[C@@H](O)C[C@]2(C)[C@@]1(O)C(=O)CO [DEX, Dexamethasone, reference compound]
C < N, percentage of cells (GR-GFP chimera [2]; ligand 1.10-6M): 29% | C << N, percentage of cells (GR-GFP chimera [2]; ligand 1.10-6M): 71% | C = N, percentage of cells (GR-GFP chimera [2]; ligand 1.10-6M): 0% | C > N, percentage of cells (GR-GFP chimera [2]; ligand 1.10-6M): 0% | C >> N, percentage of cells (GR-GFP chimera [2]; ligand 1.10-6M): 0% | C < N, percentage of cells (GR-GFP chimera [2]; ligand 1.10-7M): 30% | C << N, percentage of cells (GR-GFP chimera [2]; ligand 1.10-7M): 67% | C = N, percentage of cells (GR-GFP chimera [2]; ligand 1.10-7M): 3% | C > N, percentage of cells (GR-GFP chimera [2]; ligand 1.10-7M): 0% | C >> N, percentage of cells (GR-GFP chimera [2]; ligand 1.10-7M): 0% | C < N, percentage of cells (GR-GFP chimera [3]; ligand 5.10-6M): 0.5% | C << N, percentage of cells (GR-GFP chimera [3]; ligand 5.10-6M): 99.5% | C = N, percentage of cells (GR-GFP chimera [3]; ligand 5.10-6M): 0% | C > N, percentage of cells (GR-GFP chimera [3]; ligand 5.10-6M): 0% | C >> N, percentage of cells (GR-GFP chimera [3]; ligand 5.10-6M): 0% | C < N, percentage of cells (GR-GFP chimera [3]; ligand 5.10-7M): 1% | C << N, percentage of cells (GR-GFP chimera [3]; ligand 5.10-7M): 99% | C = N, percentage of cells (GR-GFP chimera [3]; ligand 5.10-7M): 0% | C > N, percentage of cells (GR-GFP chimera [3]; ligand 5.10-7M): 0% | C >> N, percentage of cells (GR-GFP chimera [3]; ligand 5.10-7M): 0% | C < N, percentage of cells (GR-GFP chimera [3]; ligand 5.10-8M): 5% | C << N, percentage of cells (GR-GFP chimera [3]; ligand 5.10-8M): 95% | C = N, percentage of cells (GR-GFP chimera [3]; ligand 5.10-8M): 0% | C > N, percentage of cells (GR-GFP chimera [3]; ligand 5.10-8M): 0% | C >> N, percentage of cells (GR-GFP chimera [3]; ligand 5.10-8M): 0% | C < N, percentage of cells (GR-GFP chimera [3]; ligand 5.10-9M): 42.1% | C << N, percentage of cells (GR-GFP chimera [3]; ligand 5.10-9M): 57.5% | C = N, percentage of cells (GR-GFP chimera [3]; ligand 5.10-9M): 0.3% | C > N, percentage of cells (GR-GFP chimera [3]; ligand 5.10-9M): 0% | C >> N, percentage of cells (GR-GFP chimera [3]; ligand 5.10-9M): 0% | RLU (HUH-7 cells; ligand 10-6, HUH-7): 238837 | net (HUH-7 cells; ligand 10-6, HUH-7): 185 | rel/RLU (HUH-7 cells; ligand 10-6, HUH-7): 314.7 | net (HUH-7 cells; ligand 10-7, HUH-7): 227 | rel/RLU (HUH-7 cells; ligand 10-7, HUH-7): 357.3

Cc1oc2c(C)c3oc(=O)cc(C)c3cc2c1CNC(=O)CCNC(=O)OCC(=O)[C@@]1(O)[C@H](C)CC2C3CCC4=CC(=O)C=CC4(C)[C@@]3(F)C(O)CC21C (stereo partly shown) [DEX-C4-Pso]
stability of urethane bond between steroid moiety, spacer and DNA binder [1]: stable | C < N, percentage of cells (GR-GFP chimera [2]; ligand 1.10-6M): 15% | C << N, percentage of cells (GR-GFP chimera [2]; ligand 1.10-6M): 5% | C = N, percentage of cells (GR-GFP chimera [2]; ligand 1.10-6M): 60% | C > N, percentage of cells (GR-GFP chimera [2]; ligand 1.10-6M): 20% | C >> N, percentage of cells (GR-GFP chimera [2]; ligand 1.10-6M): 0% | C < N, percentage of cells (GR-GFP chimera [2]; ligand 1.10-7M): 5% | C << N, percentage of cells (GR-GFP chimera [2]; ligand 1.10-7M): 0% | C = N, percentage of cells (GR-GFP chimera [2]; ligand 1.10-7M): 40% | C > N, percentage of cells (GR-GFP chimera [2]; ligand 1.10-7M): 35% | C >> N, percentage of cells (GR-GFP chimera [2]; ligand 1.10-7M): 20%

Cc1oc2c(C)c3oc(=O)cc(C)c3cc2c1CNC(=O)OCCOCCNC(=O)OCCOCCNC(=O)OCC(=O)[C@@]1(O)[C@H](C)CC2C3CCC4=CC(=O)C=CC4(C)[C@@]3(F)C(O)CC21C (stereo partly shown) [DEX-O-O-PSO]
stability of urethane bond between steroid moiety, spacer and DNA binder [1]: stable

CC[n+]1c(-c2ccccc2)c2cc(N)ccc2c2ccc(N)cc21 [EtBr, Ethidium Bromide, reference compound]
light units (relative luminescence, LacZ) (3Y1 cells; ligand 10^-6M): 2250 RLU/mg*1000 | light units (relative luminescence, LacZ) (3Y1 cells; ligand 10^-7M): 2500 RLU/mg*1000 | light units (relative luminescence, LacZ) (3Y1 cells; ligand 10^-8M): 2750 RLU/mg*1000 | RLU ([4]; ligand 10-6, CV-1 with GR): 851 | induction (relative reporter gene activity, divided by value of lane 9) ([4]; ligand 10-6, CV-1 with GR): 0.77 | net = rel/RLU−600 ([4]; ligand 10-6, CV-1 with GR): 626.2 | rel/RLU = (RLU:protein)×1000 ([4]; ligand 10-6, CV-1 with GR): 1226.2 | RLU ([4]; ligand 10-7, CV-1 with GR): 1632 | induction (relative reporter gene activity, divided by value of lane 9) ([4]; ligand 10-7, CV-1 with GR): 2.01 | net = rel/RLU−600 ([4]; ligand 10-7, CV-1 with GR): 1626 | rel/RLU = (RLU:protein)×1000 ([4]; ligand 10-7, CV-1 with GR): 2226.5 | RLU (HUH-7 cells; ligand 10-6, HUH-7): 168920 | induction (relative reporter gene activity, divided by value of lane 9) (HUH-7 cells; ligand 10-6, HUH-7): 1.49 | net (HUH-7 cells; ligand 10-6, HUH-7): 103 | rel/RLU (HUH-7 cells; ligand 10-6, HUH-7): 233.3
